In publication PMC11237924, “A neutral invertase controls cell division besides hydrolysis of sucrose for nutrition during germination and seed setting in rice” (iScience, 2024):

How the values were obtained:
[1] = molecular target: T1, OsNIN8 (MBP-OsNIN8), neutral invertase 8 (Oryza sativa, UniProt Q69T31, D275A/E501A); experiment: ITC incremental titration; format: binding; details: 25 °C, 0.1 mM protein, 10 mM sucrose in syringe; catalytic-residue mutant
T1 construct: gene CINV1; N-terminal MBP fusion (pETMALc-H), tag kept, expressed in E. coli BL21(DE3), amylose resin purified
T1 sequence (Q69T31 1-562 D275A/E501A): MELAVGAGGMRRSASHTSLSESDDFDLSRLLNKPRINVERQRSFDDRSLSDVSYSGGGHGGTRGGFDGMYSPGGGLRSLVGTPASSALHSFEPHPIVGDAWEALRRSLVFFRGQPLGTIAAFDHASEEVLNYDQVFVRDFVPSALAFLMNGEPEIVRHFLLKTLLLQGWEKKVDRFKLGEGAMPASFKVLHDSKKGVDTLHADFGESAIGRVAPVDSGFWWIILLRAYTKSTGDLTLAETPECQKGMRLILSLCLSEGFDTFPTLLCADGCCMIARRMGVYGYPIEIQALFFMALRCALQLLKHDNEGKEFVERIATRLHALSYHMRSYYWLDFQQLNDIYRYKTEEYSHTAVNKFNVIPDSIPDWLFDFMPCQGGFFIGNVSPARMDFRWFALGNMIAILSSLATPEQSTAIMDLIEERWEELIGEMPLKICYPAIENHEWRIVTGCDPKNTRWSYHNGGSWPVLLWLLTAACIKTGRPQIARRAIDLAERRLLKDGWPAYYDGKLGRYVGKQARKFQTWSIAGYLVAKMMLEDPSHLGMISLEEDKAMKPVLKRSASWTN

[2] = molecular target: T2, OsNIN8 (MBP-OsNIN8), neutral invertase 8 (Oryza sativa, UniProt Q69T31, G461R); experiment: pulldown on amylose magnetic beads with GC-TOF MS; ITC titration; format: binding; details: 50 mM potassium phosphate pH 6.4, 25 °C; OsNIN8m, retains residual sucrose hydrolysis
T2 construct: gene CINV1; N-terminal MBP fusion (pETMALc-H), tag kept, expressed in E. coli BL21(DE3), amylose resin purified
T2 sequence (Q69T31 1-562 G461R): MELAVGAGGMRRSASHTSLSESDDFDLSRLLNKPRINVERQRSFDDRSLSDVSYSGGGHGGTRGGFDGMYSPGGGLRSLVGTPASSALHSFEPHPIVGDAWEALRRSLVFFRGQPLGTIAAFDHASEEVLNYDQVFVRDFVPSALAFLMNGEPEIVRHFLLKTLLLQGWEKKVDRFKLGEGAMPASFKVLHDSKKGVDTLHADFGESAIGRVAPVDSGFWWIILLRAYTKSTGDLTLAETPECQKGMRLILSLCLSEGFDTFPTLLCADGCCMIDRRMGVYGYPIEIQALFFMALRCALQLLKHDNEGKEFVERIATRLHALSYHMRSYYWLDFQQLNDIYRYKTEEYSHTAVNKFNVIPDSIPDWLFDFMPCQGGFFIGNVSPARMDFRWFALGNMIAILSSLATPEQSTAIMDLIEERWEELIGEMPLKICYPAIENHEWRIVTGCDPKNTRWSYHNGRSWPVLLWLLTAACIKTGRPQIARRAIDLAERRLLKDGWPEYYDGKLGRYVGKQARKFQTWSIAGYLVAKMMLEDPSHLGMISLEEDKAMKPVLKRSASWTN

[3] = molecular target: T3, OsNIN8 (MBP-OsNIN8), neutral invertase 8 (Oryza sativa, UniProt Q69T31, D275A); experiment: ITC incremental titration; format: binding; details: 25 °C, 0.1 mM protein, 10 mM sucrose in syringe; catalytic-residue mutant
T3 construct: gene CINV1; N-terminal MBP fusion (pETMALc-H), tag kept, expressed in E. coli BL21(DE3), amylose resin purified
T3 sequence (Q69T31 1-562 D275A): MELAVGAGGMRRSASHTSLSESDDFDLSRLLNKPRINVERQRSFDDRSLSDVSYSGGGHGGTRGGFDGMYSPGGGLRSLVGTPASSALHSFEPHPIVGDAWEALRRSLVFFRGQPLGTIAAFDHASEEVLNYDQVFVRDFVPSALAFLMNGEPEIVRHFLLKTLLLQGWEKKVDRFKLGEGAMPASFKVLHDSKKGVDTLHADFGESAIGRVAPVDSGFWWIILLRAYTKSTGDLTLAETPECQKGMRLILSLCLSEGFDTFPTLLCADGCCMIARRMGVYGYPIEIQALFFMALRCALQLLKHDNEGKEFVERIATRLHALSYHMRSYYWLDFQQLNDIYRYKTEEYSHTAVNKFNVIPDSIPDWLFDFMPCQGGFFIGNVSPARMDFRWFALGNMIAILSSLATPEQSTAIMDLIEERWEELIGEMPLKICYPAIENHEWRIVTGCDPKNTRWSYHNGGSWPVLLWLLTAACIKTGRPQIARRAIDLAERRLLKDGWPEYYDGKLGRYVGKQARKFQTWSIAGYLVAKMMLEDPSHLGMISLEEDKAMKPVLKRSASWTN

[4] = molecular target: T4, OsNIN8 (MBP-OsNIN8), neutral invertase 8 (Oryza sativa, UniProt Q69T31, E501A); experiment: ITC incremental titration; format: binding; details: 25 °C, 0.1 mM protein, 10 mM sucrose in syringe; catalytic-residue mutant
T4 construct: gene CINV1; N-terminal MBP fusion (pETMALc-H), tag kept, expressed in E. coli BL21(DE3), amylose resin purified
T4 sequence (Q69T31 1-562 E501A): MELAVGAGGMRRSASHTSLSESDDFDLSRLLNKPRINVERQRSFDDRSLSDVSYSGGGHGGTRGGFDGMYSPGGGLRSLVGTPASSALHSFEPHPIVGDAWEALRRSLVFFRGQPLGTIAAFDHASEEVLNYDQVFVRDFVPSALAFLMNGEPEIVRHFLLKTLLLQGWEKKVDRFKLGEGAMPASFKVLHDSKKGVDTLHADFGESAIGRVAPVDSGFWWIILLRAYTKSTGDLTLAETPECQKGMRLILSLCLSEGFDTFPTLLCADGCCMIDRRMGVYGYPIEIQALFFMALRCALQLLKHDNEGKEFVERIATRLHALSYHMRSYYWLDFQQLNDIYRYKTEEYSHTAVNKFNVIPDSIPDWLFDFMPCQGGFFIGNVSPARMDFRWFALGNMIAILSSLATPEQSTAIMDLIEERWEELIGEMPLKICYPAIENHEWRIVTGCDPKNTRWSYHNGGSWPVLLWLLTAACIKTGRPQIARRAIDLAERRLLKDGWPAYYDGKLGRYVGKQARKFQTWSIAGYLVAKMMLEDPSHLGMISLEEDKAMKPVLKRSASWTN

[5] = substrate: OC[C@H]1O[C@@](CO)(O[C@H]2O[C@H](CO)[C@@H](O)[C@H](O)[C@H]2O)[C@@H](O)[C@@H]1O; experiment: purified protein; format: biochemical, Oryza sativa; details: 50 mM potassium phosphate pH 6.4, fit over 0-20 mM sucrose (substrate inhibition above 20 mM)

Molecule: OC[C@H]1O[C@@](CO)(O[C@H]2O[C@H](CO)[C@@H](O)[C@H](O)[C@H]2O)[C@@H](O)[C@@H]1O [Sucrose]
- ITC incremental titration [1]: all had not hydrolytic activity on sucrose, showed their bindings to sucrose were exotherm
- pulldown on amylose magnetic beads with GC-TOF MS; ITC titration [2]: OsNIN8m bound more sucrose than OsNIN8 did
- ITC incremental titration [3]: all had not hydrolytic activity on sucrose, showed their bindings to sucrose were exotherm
- ITC incremental titration [4]: all had not hydrolytic activity on sucrose, showed their bindings to sucrose were exotherm

B1: OsNIN8 (MBP-OsNIN8), neutral invertase 8 (Oryza sativa Japonica Group) (protein)
chain: MELAVGAGGMRRSASHTSLSESDDFDLSRLLNKPRINVERQRSFDDRSLSDVSYSGGGHGGTRGGFDGMYSPGGGLRSLVGTPASSALHSFEPHPIVGDAWEALRRSLVFFRGQPLGTIAAFDHASEEVLNYDQVFVRDFVPSALAFLMNGEPEIVRHFLLKTLLLQGWEKKVDRFKLGEGAMPASFKVLHDSKKGVDTLHADFGESAIGRVAPVDSGFWWIILLRAYTKSTGDLTLAETPECQKGMRLILSLCLSEGFDTFPTLLCADGCCMIDRRMGVYGYPIEIQALFFMALRCALQLLKHDNEGKEFVERIATRLHALSYHMRSYYWLDFQQLNDIYRYKTEEYSHTAVNKFNVIPDSIPDWLFDFMPCQGGFFIGNVSPARMDFRWFALGNMIAILSSLATPEQSTAIMDLIEERWEELIGEMPLKICYPAIENHEWRIVTGCDPKNTRWSYHNGGSWPVLLWLLTAACIKTGRPQIARRAIDLAERRLLKDGWPEYYDGKLGRYVGKQARKFQTWSIAGYLVAKMMLEDPSHLGMISLEEDKAMKPVLKRSASWTN
notes: N-terminal MBP fusion (pETMALc-H), tag kept, expressed in E. coli BL21(DE3), amylose resin purified
- Km [5]: 2718 ± 347 µM
